47 compounds from article PMC7216583 (Parasites & Vectors, 2020) can be followed below.

Each structure is given as a SMILES string. Structures can show the parent of a compound that is named as a salt. Where two headings read alike, the source gives them in different places.

In the experiment the test system is Toxoplasma gondii RH-2F tachyzoites. Kind of experiment: microbe, parasite or virus in culture. Conditions: 72 h.
Setting [1] is: read-out: Parasite inhibition (%) mean, preliminary screen, mean.
Where [2] appears, read: read-out: Parasite inhibition (%) mean, preliminary screen of compound library, mean.
[3] abbreviates: read-out: Parasite inhibition (%) mean.

For `COc1ccc2[nH]c([S+]([O-])Cc3ncc(C)c(OC)c3C)nc2c1` (centres unmarked) [Esomeprazole magnesium (Nexium)], the inhibition of growth at 5 µM under setting [1] turned out to be 1.6%. Consider `COc1ccc2[nH]c([S+]([O-])Cc3ncc(C)c(OC)c3C)nc2c1` (centres unmarked) [Esomeprazole sodium (Nexium)], for which the inhibition of growth at 5 µM under setting [2] came out at 14.2%.

For the compound `Cc1cc(C#N)cc(C)c1Oc1nc(Nc2ccc(C#N)cc2)nc(N)c1Br` [Etravirine (TMC125)], under setting [2], the inhibition of growth at 5 µM was 0%.

With `Cc1nc(C(=O)NCC(=O)O)c(O)c2ccc(Oc3ccccc3)cc12` [FG-4592], the inhibition of growth at 5 µM under setting [1] was 1.3%.

As for `CC(C(=O)[O][Ca][O]C(=O)C(C)c1cccc(Oc2ccccc2)c1)c1cccc(Oc2ccccc2)c1` (centres unmarked) [Fenoprofen calcium], the inhibition of growth at 5 µM under setting [2] was found to be 27.4%. Same read-out and setting: for `Clc1ccc(C(Cn2ccnc2)OCc2ccc(Sc3ccccc3)cc2)c(Cl)c1` (centres unmarked) [Fenticonazole nitrate] the value was 19.8%; for `CC(C)C(=O)Oc1ccc(CO)cc1[C@H](CCN(C(C)C)C(C)C)c1ccccc1` [Fesoterodine fumarate (Toviaz)], 0.2%; for `C[C@@H](C(=O)O)c1ccc(-c2ccccc2)c(F)c1` [Flurbiprofen (Ansaid)], -23.7%. Take `C[C@@H](O[C@H]1OCCN(Cc2nn(P(=O)(O)O)c(=O)[nH]2)[C@H]1c1ccc(F)cc1)c1cc(C(F)(F)F)cc(C(F)(F)F)c1` [Fosaprepitant dimeglumine]: the inhibition of growth at 5 µM under setting [2] is -2.8%. For the compound `CCC(=O)O[C@@H](OP(=O)(CCCCc1ccccc1)CC(=O)N1C[C@H](C2CCCCC2)C[C@H]1C(=O)O)C(C)C` (some centres unmarked) [Fosinopril sodium (Monopril)], the inhibition of growth at 5 µM under setting [1] came out at 21.3%.

As for `N[C@@H](CSCCCO)C(=O)O` [Fudosteine], the inhibition of growth at 5 µM under setting [2] was found to be 11%.

As for `C[C@@H](Oc1cc(-n2cnc3ccc(CN4CCN(C)CC4)cc32)sc1C(N)=O)c1ccccc1C(F)(F)F` [GSK461364], under setting [1], the inhibition of growth at 5 µM came to 6.6%. Regarding `CC(C)c1noc(N2CCC(COc3ccc(-c4ccc(S(C)(=O)=O)cc4)nc3)CC2)n1` [GSK1292263], the inhibition of growth at 5 µM under setting [1] came to 0.7%. As for `Cc1c(Cn2c(C)nc3c(C(=O)O)cc(N4CCOCC4)cc32)cccc1C(F)(F)F` [GSK2636771], under setting [2], the inhibition of growth at 5 µM was 1.7%. Same read-out and setting: then `Cc1cc(SCc2sc(-c3ccc(C(F)(F)F)c(F)c3)nc2C)ccc1OCC(=O)O` [GW0742], with 23.4%; and `CC(C)c1onc(-c2c(Cl)cccc2Cl)c1COc1ccc(/C=C/c2cccc(C(=O)O)c2)c(Cl)c1` [GW4064], with -7.7%. The same measure, in the same setting: then `O=C(NCC1CCOCC1)c1cnc(Nc2ccc(Cl)cc2Cl)nc1C(F)(F)F` [GW842166X], with -12%. Turning to `NCC1(CC(=O)O)CCCCC1` [Gabapentin HCl], the inhibition of growth at 5 µM under setting [1] is 1.7%. Regarding `Nc1ccn([C@@H]2O[C@H](CO)[C@@H](O)C2(F)F)c(=O)n1` [Gemcitabine (Gemzar)], the inhibition of growth at 5 µM under setting [1] was determined as 0.1%. Still for that read-out and setting: then `C#C[C@]1(O)C=C[C@H]2[C@@H]3CCC4=CC(=O)CC[C@@H]4[C@H]3CC[C@@]21CC` [Gestodene], with 0.6%. For `COc1ccc(Cl)cc1C(=O)NCCc1ccc(S(=O)(=O)NC(=O)NC2CCCCC2)cc1` [Glyburide (Diabeta)], the inhibition of growth at 5 µM under setting [2] is 1.9%. Take `CN[C@@H]1C[C@@H](N)[C@H](O)[C@@H](O[C@@H]2O[C@H](CO)[C@H](O)[C@@H]3OC4(O[C@@H]23)O[C@H]([C@@H](N)CO)[C@H](O)[C@H](O)[C@@H]4O)[C@@H]1O` (some centres unmarked) [Hygromycin B]: the inhibition of growth at 5 µM under setting [2] came to 40.4%. For the compound `COc1cc(C(C)=O)ccc1OCCCN1CCC(c2noc3cc(F)ccc23)CC1` [Iloperidone (Fanapt)], the inhibition of growth at 5 µM under setting [2] stood at 37.8%. On to `NC(=O)c1ccc(I)c([N+](=O)[O-])c1` [Iniparib (BSI-201)], for which the inhibition of growth at 5 µM under setting [1] turned out to be 2.4%. In the case of `CCn1c(=O)c2c(nc(/C=C/c3ccc(OC)c(OC)c3)n2C)n(CC)c1=O` [Istradefylline (KW-6002)], under setting [2], the inhibition of growth at 5 µM is -1.9%. Regarding `c1ccc2c(CCNc3ccc(Nc4ccncc4)cc3)c[nH]c2c1` [JNJ 26854165 (Serdemetan)], the inhibition of growth at 5 µM under setting [1] worked out at 48.9%. In the case of `CN1CCN(C(=O)c2cc3cc(Cl)ccc3[nH]2)CC1` [JNJ-7777120], under setting [2], the inhibition of growth at 5 µM was 67.4%. In the case of `COc1ccc(CCC(=O)Nc2nc3ccc(Cl)cc3s2)cc1OC` [KY02111], the inhibition of growth at 5 µM under setting [2] is -12.8%. With `COC(=O)CCSCc1ccc(-c2onc(C)c2NC(=O)OC(C)c2ccccc2Cl)cc1` (centres unmarked) [Ki16198], under setting [2], the inhibition of growth at 5 µM worked out at 1.4%. Consider `CNC[C@H](O)c1ccc(O)c(O)c1` [L-Adrenaline (Epinephrine)], for which the inhibition of growth at 5 µM under setting [3] worked out at 0.4%. On the same count and under the same terms, then `O[C@@H](COc1cccc2ncccc12)CN1CCN([C@@H]2c3ccccc3[C@@H]3[C@H](c4ccccc42)C3(F)F)CC1` [LY335979 (Zosuquidar 3HCl)], with -7.9%. For `Cc1cccc(-c2nn3c(c2-c2ccnc4ccc(C(N)=O)cc24)CCC3)n1` [LY2157299], under setting [2], the inhibition of growth at 5 µM was determined as 5.2%. On the same count and under the same terms, then `Cc1cnc(NC(=O)Nc2cc(Br)c(C)cc2OC[C@@H]2CNCCO2)cn1` [LY2603618 (IC-83)], with 22.7%. `NC1=N[C@@]2(c3cc(NC(=O)c4ccc(F)cn4)ccc3F)COC[C@H]2CS1` [LY2886721]: under setting [1], the inhibition of growth at 5 µM was found to be 35.7%.

For `CN(C(=O)c1ccc(F)cc1C(F)(F)F)C1CCN(c2nnc(-c3ccnn3C)c3ccccc23)CC1` [LY2940680], under setting [1], the inhibition of growth at 5 µM was found to be 2.1%. On to `CS(=O)(=O)CCNCc1ccc(-c2ccc3ncnc(Nc4ccc(OCc5cccc(F)c5)c(Cl)c4)c3c2)o1` [Lapatinib Ditosylate (Tykerb)], for which, under setting [1], the inhibition of growth at 5 µM worked out at 3.3%. Consider `c1ccc([C@H]2CN3CCSC3=N2)cc1` [Levamisole Hydrochloride (Ergamisol)], for which the inhibition of growth at 5 µM under setting [3] was determined as 63.9%. `N[C@@H](Cc1ccc(O)c(O)c1)C(=O)O` [Levodopa (Sinemet)]: under setting [2], the inhibition of growth at 5 µM turned out to be 12.1%. Consider `C[C@H]1CNCCc2ccc(Cl)cc21` [Lorcaserin HCl], for which the inhibition of growth at 5 µM under setting [2] was 34.8%. As to `CNC(=O)c1ccc(N2C(=S)N(c3ccc(C#N)c(C(F)(F)F)c3)C(=O)C2(C)C)cc1F` [MDV3100 (Enzalutamide)], under setting [1], the inhibition of growth at 5 µM was determined as 35.7%. Same read-out and setting: for `C=CCn1c(=O)c2cnc(Nc3ccc(N4CCN(C)CC4)cc3)nc2n1-c1cccc(C(C)(C)O)n1` [MK-1775] the value was 0%.

Take `NC1(c2ccc(-c3nc4ccn5c(=O)[nH]nc5c4cc3-c3ccccc3)cc2)CCC1` [MK-2206 2HCl]: the inhibition of growth at 5 µM under setting [1] amounted to 45.5%. As for `O=C(O)[C@]1(Cc2cccc(Nc3nccs3)n2)CC[C@@H](Oc2cccc(Cl)c2F)CC1` [MK-5108 (VX-689)], the inhibition of growth at 5 µM under setting [2] amounted to 60.4%. Take `O=C(O)Cn1nnc(-c2cc(N3CCC(Oc4cc(F)ccc4Br)CC3)no2)n1` [MK-8245]: the inhibition of growth at 5 µM under setting [1] amounted to 14.5%. In the case of `O=C(O)c1ccc(Nc2ncc3c(n2)-c2ccc(Cl)cc2C(c2c(F)cccc2F)=NC3)cc1` [MLN8054], the inhibition of growth at 5 µM under setting [1] was 58.4%.

`COc1cc(Nc2ncc3c(n2)-c2ccc(Cl)cc2C(c2c(F)cccc2OC)=NC3)ccc1C(=O)O` [MLN8237 (Alisertib)]: the inhibition of growth at 5 µM under setting [1] was determined as 58.9%. Regarding `CC(C)OC(=O)C(C(=O)OC(C)C)=C1SC=CS1` [Malotilate], the inhibition of growth at 5 µM under setting [2] amounted to 0.5%.
